Results: BigSolDB 2.1

Cn1cc[n+](CCCC[n+]2ccn(C)c2)c1.F[P-](F)(F)(F)(F)F.F[P-](F)(F)(F)(F)F
Settings | solubility (mole fraction)
in 2-butanone, 283.15 K | 0.00838
in 2-butanone, 288.15 K | 0.00936
in 2-butanone, 294.15 K | 0.0114
in 2-butanone, 299.15 K | 0.014
in 2-butanone, 304.15 K | 0.0178
in 2-butanone, 309.15 K | 0.0235
in 2-butanone, 315.15 K | 0.0349
in 2-butanone, 320.15 K | 0.0496
in 2-butanone, 325.15 K | 0.0728
in acetophenone, 299.65 K | 0.00127
in acetophenone, 303.65 K | 0.00198
in acetophenone, 307.35 K | 0.00285
in acetophenone, 313.15 K | 0.00472
in acetophenone, 318.15 K | 0.00677
in acetophenone, 323.15 K | 0.00919
in acetophenone, 328.15 K | 0.0117
in acetophenone, 332.15 K | 0.0137
in acetylacetone, 283.15 K | 0.00252
in acetylacetone, 288.15 K | 0.0026
in acetylacetone, 293.15 K | 0.00295
in acetylacetone, 297.45 K | 0.00352
in acetylacetone, 302.65 K | 0.00473
in acetylacetone, 309.15 K | 0.00768
in acetylacetone, 314.15 K | 0.0121
in acetylacetone, 320.15 K | 0.0227
in acetylacetone, 325.15 K | 0.0409
in acetylacetone, 330.15 K | 0.0784
in cyclohexanone, 283.15 K | 0.000563
in cyclohexanone, 288.15 K | 0.0009
in cyclohexanone, 293.15 K | 0.00138
in cyclohexanone, 298.35 K | 0.00206
in cyclohexanone, 302.15 K | 0.00271
in cyclohexanone, 308.65 K | 0.0041
in cyclohexanone, 313.15 K | 0.00529
in cyclohexanone, 318.25 K | 0.00688
in cyclohexanone, 323.15 K | 0.00857
in cyclohexanone, 328.15 K | 0.0105
in cyclohexanone, 333.15 K | 0.0124
in water, 283.15 K | 9.5e-05
in water, 288.45 K | 0.000124
in water, 293.15 K | 0.000156
in water, 298.15 K | 0.000203
in water, 303.65 K | 0.000274
in water, 308.15 K | 0.000348
in water, 313.15 K | 0.000456
in water, 318.35 K | 0.000608
in water, 323.15 K | 0.00079
in water, 328.15 K | 0.00105
in water, 333.15 K | 0.00138
